Among the data in patent US20260070906A1, “IMIDAZO[4,5-C]PYRIDINE COMPOUNDS FOR THE TREATMENT OF CANCER” (Hoffmann-La Roche Inc., priority 2023, published 2026) are EC50 values, retold here.

In general, EC50 refers to the midpoint of the concentration-response curve.

Assay [1] concerns the target T1, human TLR7 (Homo sapiens, UniProt Q9NYK1).
T1 construct: host or cells: HEK293-Blue-hTLR7 (HEK293)
T1 sequence (Q9NYK1 27-1049): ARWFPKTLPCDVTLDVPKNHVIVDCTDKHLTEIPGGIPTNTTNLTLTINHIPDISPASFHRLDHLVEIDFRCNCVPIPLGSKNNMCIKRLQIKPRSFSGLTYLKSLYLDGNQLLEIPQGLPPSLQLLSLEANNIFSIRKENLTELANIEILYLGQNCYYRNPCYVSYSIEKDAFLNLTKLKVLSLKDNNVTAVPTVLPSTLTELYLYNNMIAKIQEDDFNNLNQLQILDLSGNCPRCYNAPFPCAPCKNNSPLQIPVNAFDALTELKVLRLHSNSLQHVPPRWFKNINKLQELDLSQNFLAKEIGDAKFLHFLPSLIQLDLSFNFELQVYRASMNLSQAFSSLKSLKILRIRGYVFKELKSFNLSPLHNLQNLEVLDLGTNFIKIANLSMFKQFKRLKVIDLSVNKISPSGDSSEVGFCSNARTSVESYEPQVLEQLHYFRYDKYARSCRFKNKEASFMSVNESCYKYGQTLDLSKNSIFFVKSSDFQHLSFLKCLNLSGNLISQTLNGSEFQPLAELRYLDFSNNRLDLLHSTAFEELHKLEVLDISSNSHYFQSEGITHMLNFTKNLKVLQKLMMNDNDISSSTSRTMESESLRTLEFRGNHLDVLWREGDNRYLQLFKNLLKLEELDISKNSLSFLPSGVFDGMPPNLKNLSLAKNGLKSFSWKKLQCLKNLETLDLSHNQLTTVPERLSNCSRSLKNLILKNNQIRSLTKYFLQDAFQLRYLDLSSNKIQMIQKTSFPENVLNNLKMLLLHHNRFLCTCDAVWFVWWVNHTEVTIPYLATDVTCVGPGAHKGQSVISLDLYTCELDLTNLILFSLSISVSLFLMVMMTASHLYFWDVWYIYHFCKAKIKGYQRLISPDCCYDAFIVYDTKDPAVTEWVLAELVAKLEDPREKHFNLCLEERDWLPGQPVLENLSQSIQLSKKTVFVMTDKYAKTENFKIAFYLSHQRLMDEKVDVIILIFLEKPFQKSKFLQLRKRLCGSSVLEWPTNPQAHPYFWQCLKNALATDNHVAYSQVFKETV
In words: HEK293-Blue-hTLR7 cells assay (NF-κB SEAP reporter). In kind it is cell-based. The conditions noted are these: 20 hrs incubation, agonism. From the text:
A stable HEK293-Blue-hTLR7 cell line was purchased from InvivoGen (Cat. #: hkb-htlr7, San Diego, California, USA). These cells were designed for studying the stimulation of human TLR7 by monitoring the activation of NF-κB. A SEAP (secreted embryonic alkaline phosphatase) reporter gene was placed under the control of the IFN-β minimal promoter fused to five NF-κB and AP-1-binding sites. The SEAP was induced by activating NF-κB and AP-1 via stimulating HEK-Blue hTLR7 cells with TLR7 ligands. Therefore the reporter expression was regulated by the NF-κB promoter upon stimulation of human TLR7 for 20 hrs. The cell culture supernatant SEAP reporter activity was determined using QUANTI-Blue™ kit (Cat. #: rep-qbl, Invivogen, San Diego, Ca, USA) at a wavelength of 650 nm, a detection medium that turns purple or blue in the presence of alkaline phosphatase.
HEK293-Blue-hTLR7 cells were incubated at a density of 250,000˜450,000 cells/mL in a volume of 180 μL in a 96-well plate in Dulbecco's Modified Eagle's medium (DMEM) containing 4.5 g/L glucose, 100 U/mL penicillin, 100 μg/mL streptomycin, 100 μg/mL Normocin, 1% (V/V) GlutaMAX™, 10% (V/V) heat-inactivated fetal bovine serum for 24 hrs. Then the HEK293-Blue-hTLR-7 cells were incubated with addition of 20 μL test compound in a serial dilution in the presence of final DMSO at 1% and perform incubation under 37° C. in a CO2 incubator for 20 hrs. Then 20 μL of the supernatant from each well was incubated with 180 μL Quanti-blue substrate solution at 37° C. for 1 hours and the absorbance was read at 620-655 nm using a spectrophotometer. The signalling pathway that TLR7 activation leads to downstream NF-κB activation has been widely accepted, and therefore similar reporter assay was also widely used for evaluating TLR7 agonist (Tsuneyasu Kaisho and Takashi Tanaka, Trends in Immunology, Volume 29, Issue 7, July 2008, […]; Hiroaki Hemmi et al, Nature Immunology 3, 196-200 (2002)).

The target in assay [2] is T2, human TLR8 (Homo sapiens, UniProt Q9NR97).
T2 construct: host or cells: HEK293-Blue-hTLR8 (HEK293)
T2 sequence (Q9NR97 27-1041): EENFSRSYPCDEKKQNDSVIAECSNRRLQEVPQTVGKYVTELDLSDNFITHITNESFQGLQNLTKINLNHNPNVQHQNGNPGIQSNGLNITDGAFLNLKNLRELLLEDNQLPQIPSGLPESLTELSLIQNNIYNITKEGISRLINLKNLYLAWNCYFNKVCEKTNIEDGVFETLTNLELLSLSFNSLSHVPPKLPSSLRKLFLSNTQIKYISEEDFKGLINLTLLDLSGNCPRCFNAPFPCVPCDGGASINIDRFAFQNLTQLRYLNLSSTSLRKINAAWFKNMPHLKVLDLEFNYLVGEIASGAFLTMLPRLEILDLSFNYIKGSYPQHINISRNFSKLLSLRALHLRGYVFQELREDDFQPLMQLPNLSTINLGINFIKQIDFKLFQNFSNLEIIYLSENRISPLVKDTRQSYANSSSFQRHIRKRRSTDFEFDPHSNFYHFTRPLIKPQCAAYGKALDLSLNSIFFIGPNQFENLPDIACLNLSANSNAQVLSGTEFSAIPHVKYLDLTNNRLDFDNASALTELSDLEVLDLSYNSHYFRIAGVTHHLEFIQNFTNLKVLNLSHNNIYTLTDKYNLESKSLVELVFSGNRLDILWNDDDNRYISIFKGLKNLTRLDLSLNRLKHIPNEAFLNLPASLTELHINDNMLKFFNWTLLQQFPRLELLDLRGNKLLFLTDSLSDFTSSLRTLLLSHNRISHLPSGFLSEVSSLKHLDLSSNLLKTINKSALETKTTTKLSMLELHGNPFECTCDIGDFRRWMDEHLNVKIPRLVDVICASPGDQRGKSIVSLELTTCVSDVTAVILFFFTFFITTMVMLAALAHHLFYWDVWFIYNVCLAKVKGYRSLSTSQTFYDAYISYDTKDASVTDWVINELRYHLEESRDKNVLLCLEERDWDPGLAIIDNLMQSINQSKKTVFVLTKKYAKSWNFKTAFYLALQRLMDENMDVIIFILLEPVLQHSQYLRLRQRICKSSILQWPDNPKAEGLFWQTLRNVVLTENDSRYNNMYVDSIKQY
In words: HEK293-Blue-hTLR8 cells assay (NF-κB SEAP reporter). The format is cell-based. The conditions noted are these: 20 hours incubation, agonism. From the text:
A stable HEK293-Blue-hTLR8 cell line was purchased from InvivoGen (Cat. #: hkb-htlr8, San Diego, California, USA). These cells were designed for studying the stimulation of human TLR8 by monitoring the activation of NF-κB. A SEAP (secreted embryonic alkaline phosphatase) reporter gene was placed under the control of the IFN-β minimal promoter fused to five NF-κB and AP-1-binding sites. The SEAP was induced by activating NF-κB and AP-1 via stimulating HEK-Blue hTLR8 cells with TLR8 ligands. Therefore the reporter expression was regulated by the NF-κB promoter upon stimulation of human TLR8. The cell culture supernatant SEAP reporter activity was determined using QUANTI-Blue™ kit (Cat. #: rep-qbl, Invivogen, San Diego, Ca, USA) at a wavelength of 650 nm, a detection medium that turns purple to blue in the presence of alkaline phosphatase.
HEK293-Blue-hTLR8 cells were incubated at a density of 250,000-450,000 cells/mL in a volume of 180 μL in a 96-well plate in Dulbecco's Modified Eagle's medium (DMEM) containing 4.5 g/L glucose, 100 U/mL penicillin, 100 μg/mL streptomycin, 100 μg/mL Normocin, 1% (V/V) GlutaMAX™, 10% (v/v) heat-inactivated fetal bovine serum for 24 hours. Then the HEK293-Blue-hTLR8 cells were incubated with addition of 20 μL test compound in a serial dilution in the presence of final DMSO at 1% and perform incubation under 37° C. in a CO2 incubator for 20 hours. Then 20 μL of the supernatant from each well was incubated with 180 μL Quanti-blue substrate solution at 37° C. for 1 hours and the absorbance was read at 620-655 nm using a spectrophotometer. The signalling pathway that TLR8 activation leads to downstream NF-κB activation has been widely accepted, and therefore similar reporter assay was also widely used for evaluating TLR8 agonist.

Consider `CCOCc1nc2c(N)nc(C)c(Sc3ccc(CN(C)C)cc3)c2[nH]1` [Example 1, 7-[4-[(dimethylamino)methyl]phenyl]sulfanyl-2-(ethoxymethyl)-6-methyl-1H-imidazo[4,5-c]pyridin-4-amine], for which the results for the EC50 in assay [1] and in assay [2] were 27 nM and 14 nM, respectively.

On to `CCCCc1nc2c(N)nc(C)c(Sc3ccc(CN(C)C)cc3)c2n1CC(C)(C)O` [Example 2, 1-[4-amino-2-butyl-7-[4-[(dimethylamino)methyl]phenyl]sulfanyl-6-methyl-imidazo[4,5-c]pyridin-1-yl]-2-methyl-propan-2-ol], for which the 50% effective concentration (EC50) in assay [1] worked out at 35 nM; in assay [2] it was 28 nM.

Regarding `CCOCc1nc2c(N)nc(C)c([Se]c3ccc(CN(C)C)cc3)c2n1CC(C)(C)O` [Example 3, 1-[4-amino-7-[4-[(dimethylamino)methyl]phenyl]selanyl-2-(ethoxymethyl)-6-methyl-imidazo[4,5-c]pyridin-1-yl]-2-methyl-propan-2-ol], the EC50 in assay [1] was determined as 28 nM; in assay [2], 24 nM.

With `CCOCc1nc2c(N)nc(C)c(Sc3c(OC)cc(CN(C)C)cc3OC)c2[nH]1` [Example 4, 7-[4-[(dimethylamino)methyl]-2,6-dimethoxy-phenyl]sulfanyl-2-(ethoxymethyl)-6-methyl-1H-imidazo[4,5-c]pyridin-4-amine], the EC50 in assay [1] came to 1 nM; in assay [2] it was 20 nM.

`CCCN(CC)Cc1ccc(Sc2c(C)nc(N)c3nc(COCC)[nH]c23)cc1` [Example 5, 2-(ethoxymethyl)-7-[4-[[ethyl(propyl)amino]methyl]phenyl]sulfanyl-6-methyl-1H-imidazo[4,5-c]pyridin-4-amine]: the EC50 in assay [1] was determined as 18 nM; in assay [2] it was 30 nM.

Consider `CCOCc1nc2c(N)nc(C)c(Sc3ccc(CN(C)CC)cc3)c2[nH]1` [Example 6, 2-(ethoxymethyl)-7-[4-[[ethyl(methyl)amino]methyl]phenyl]sulfanyl-6-methyl-1H-imidazo[4,5-c]pyridin-4-amine], for which the concentration for a half-maximal effect (EC50) in assay [1] was found to be 15 nM; in assay [2] it was 10 nM.

Take `CCOCc1nc2c(N)nc(C)c(Sc3ccc(CN(C)C)cc3)c2n1C` [Example 7, 7-[4-[(dimethylamino)methyl]phenyl]sulfanyl-2-(ethoxymethyl)-1,6-dimethyl-imidazo[4,5-c]pyridin-4-amine]: the EC50 in assay [1] was determined as 27 nM; in assay [2], 26 nM.

On to `CCOCc1nc2c(N)nc(C)c(Sc3ccc(CN(C)C)cc3O)c2[nH]1` [Example 8, 2-[[4-amino-2-(ethoxymethyl)-6-methyl-1H-imidazo[4,5-c]pyridin-7-yl]sulfanyl]-5-[(dimethylamino)methyl]phenol], for which the concentration giving a half-maximal response (EC50) in assay [1] is 27 nM; in assay [2], 26 nM.

In the case of `CCOCc1nc2c(N)nc(C)c(Sc3ccc(CN(C)C)c(OC)c3)c2[nH]1` [Example 9, 7-[4-[(dimethylamino)methyl]-3-methoxy-phenyl]sulfanyl-2-(ethoxymethyl)-6-methyl-1H-imidazo[4,5-c]pyridin-4-amine], the EC50 in assay [1] is 30 nM; in assay [2] it was 3 nM.

`CCOCc1nc2c(N)nc(C)c(SCCc3ccc(CN(C)C)cc3)c2[nH]1` [Example 10, 7-[2-[4-[(dimethylamino)methyl]phenyl]ethylsulfanyl]-2-(ethoxymethyl)-6-methyl-1H-imidazo[4,5-c]pyridin-4-amine]: the EC50 was found to be 8 nM in assay [1] and 10 nM in assay [2].

Turning to `CCOCc1nc2c(N)nc(C)c(Sc3ccc(CN(C)C)c(O)c3)c2[nH]1` [Example 11, 5-[[4-amino-2-(ethoxymethyl)-6-methyl-1H-imidazo[4,5-c]pyridin-7-yl]sulfanyl]-2-[(dimethylamino)methyl]phenol], the EC50 in assay [1] was 18 nM; in assay [2], 4 nM.

Consider `CCOCc1nc2c(N)nc(C)c(Sc3ccc(CN(C)C)c(O)c3)c2n1C` [Example 12, 5-[4-amino-2-(ethoxymethyl)-1,6-dimethyl-imidazo[4,5-c]pyridin-7-yl]sulfanyl-2-[(dimethylamino)methyl]phenol], for which the EC50 in assay [1] is 10 nM; in assay [2] it was 3 nM.
